Laboratory results from patent publication US11229207B2, “Topical avermectin formulations and methods for elimination and prophylaxis of susceptible and treatment resistant strains of head lice” (priority 2006, dated 2022).
Values joined by “and” are separate entries in the source; they are usually repeats but may differ in a detail not shown here. Equal entries are not always repeated. Where two headings read alike, the source gives them in different places.

Tests used:
[1] = system: SF-HL strain of permethrin-resistant human head lice; test: Hair tuft mortality bioassay, permethrin-resistant SF-HL lice; format: in vivo, Pediculus humanus capitis; design: LT50 (lethal time to 50% mortality): unit not given beside the values; details: 10 minute exposure
Source text: The SF-HL strain of permethrin-resistant human head lice (Pediculus humanus capitis, Phthiraptera:Pediculidae) is collected from infested children in Plantation and Homestead, Fla. and is maintained on an in vitro feeding system at the University of Massachusetts at Amherst, Mass. as described by Yoon et al. (2006). Lice are maintained without a human host on the in vitro rearing system from about 24 to about 36 generations. Permethrin-resistant SF-HL are selected periodically using 1% permethrin-treated filter papers (Yoon et al. 2006). Filter papers (35 mm diameter, Whatman No. 1) are immersed into 1% permethrin dissolved in acetone (w/v) for 10 seconds and is air dried in a dark fumehood from about 20 to about 30 minutes. Mixed developmental stages (first instars to adult) are placed on the treated filter paper and exposed for about 5 hours. Surviving lice are transferred back into the feeding system. The SF-HL strain are susceptible to Ovide® (0.5% malathion), but resistant to Nix® (1% permethim) and cross-resistant to DDT treatments. (Moon et al. 2003).
Mortality bioassays are performed to compare lethal time to 50% mortality values (LT50) between the ivermectin formulations, Nix®, and Ovide®. Experimental lice are newly hatched first instars (less than 24 hours old). The lice are randomly taken from the in vitro rearing system, where the lice take an overnight blood meal. Lice (about 30 lice/treatment) are placed on an individual hair tuft (about 300 strands, about 4 cm in length) using sterile forceps, and the treatment is gently rubbed into the hair until saturation occurs.
After a 10 minute exposure period, the hair tuft with lice are washed sequentially in three separate water baths, containing about 10 ml of ddH2O for about 5 seconds each. The washed hair tuft with lice is blotted onto stacks of filter paper and air dried for about 5 minutes. Any lice dislodged during treatment or washing are placed back onto the treated hair tuft. After drying, the treated hair tuft with lice is examined under a dissecting microscope and the number of dead lice is recorded.
A louse is considered dead if it can not right itself when inverted and when its legs have ceased all movements when probed. Treated hair tufts with lice are then placed onto the feeding membrane in the in vitro rearing system and are maintained at 31° C. and 75% humidity. The numbers of dead lice are reassessed at 10 minute intervals until a greater than 90% mortality is achieved. The timing for mortality begins immediately following the 10 minute exposure period. Because of this, mortality is not assessed during the washing and drying intervals (about 5 minutes). Log time versus logit percent mortality regression lines are generated to determine LT50 and LT95 values and maximum log-likelihood ratio tests are performed to test the equality (slope and intercept) of the regression lines (p<0.05, Polo PC, LeOra Software, 1987).
To determine whether ivermectin in formulation performs better than ivermectin alone, blood-fed lice are placed onto 0.5% (w/v) ivermectin formulation-treated hair tufts as described above. Blood-fed lice are also placed onto hair tufts that are treated with 0.5% ivermectin in acetone (acetone is allowed to volatilize in a fumehood for about 1 hour prior to transferring lice to the treated hair tuft), washed, and transferred to the in vitro rearing system as described above.

head lice [2] = details: cited from earlier work
SF-HL strain = details: Moon et al. 2003; cited from earlier work
head lice [3] = details: cited from earlier work; remark: listed apart in the source
[4] = SF-HL lice, Ovide values are estimated times

ivermectin [0.5% (non-formulated)]
LT50 (lethal time to 50% mortality) [1, 4]: 221.8
LT95 [1, 4]: 419.4
times faster than Nix at the LT50 ([1]; SF-HL): 27.9 times
times faster than Nix at the LT95 ([1]; SF-HL): 51.5 times
times faster than ddH2O treatment at the LT50 ([1]; SF-HL): 96.7 times
times faster than ddH2O treatment at the LT95 ([1]; SF-HL): 103.0 times
times faster than placebo formulation at the LT50 ([1]; SF-HL): 31.2 times
times faster than placebo formulation at the LT95 ([1]; SF-HL): 82.4 times

Cl[C@H]1[C@H](Cl)[C@@H](Cl)[C@@H](Cl)[C@H](Cl)[C@H]1Cl [lindane]
efficacy for treating head lice (head lice [2]; reports in other parts of the world): 61% and 93%
efficacy for treating head lice (head lice [2]; reports in the U.S.): 17%

Clc1ccc(C(c2ccc(Cl)cc2)C(Cl)(Cl)Cl)cc1 [DDT]
status of the SF-HL strain towards the treatment (SF-HL strain): cross-resistant

22,23-dihydroavermectin B1a and B1b [ivermectin]
effect against head lice in humans (head lice [3]; single oral 200 μg/kg dose, n=26 (Glaziou et al. 1994)): effective
results against head lice infestation (head lice [3]; single oral dose of 100-200 μg/kg (Dunne et al. 1991)): Positive, but not absolute, results
